Measurements reported in patent US12049450B2, “Pyridyloxy-carboxylate derivative and preparation method therefor, herbicidal composition, and use” (Qingdao Kingagroot Chemical Compound Co., Ltd., priority 2018, dated 2024).

Key:
Experiment in all cases: Post-emergence test experiment (greenhouse pot, spray at 2-3 leaf stage)
Assay type in all cases: in vivo
Conditions in all cases: 1000 g/ha; post-emergence spray at 2-3 leaf stage; assessed after 3 weeks; fresh weight inhibition rate
Abutilon theophrasti = system: Abutilon theophrasti
How it was run: (§1)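 Activity graded levels 0-5 by fresh-weight inhibition (level 5 above 85%, level 0 below 5%), assessed 3 weeks after treatment. Plants grown in greenhouse pots were sprayed post-emergence at 2-3 leaves using acetone/tween-80 solutions with methyl oleate synergist (1.5 L/ha).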

Echinochloa crusgalli = system: Echinochloa crusgalli
How it was run: as §1

Monochoria vaginalis = system: Monochoria vaginalis
How it was run: as §1

Digitaria sanguinalis = system: Digitaria sanguinalis
How it was run: as §1

Galium spurium = system: Galium spurium
How it was run: as §1

SMILES | Activity level (growth inhibition rate) Abutilon theophrasti (Abutilon theophrasti) | Activity level (growth inhibition rate) Echinochloa crusgalli (Echinochloa crusgalli) | Activity level (growth inhibition rate) Monochoria Vaginalis (Monochoria vaginalis) | Activity level (growth inhibition rate) Digitaria sanguinalis (Digitaria sanguinalis) | Activity level (growth inhibition rate) Galium spurium (Galium spurium)
CC(Oc1nc(F)c(Cl)c(N)c1Cl)C(=O)SCc1ccccc1C(F)(F)F (stereo not shown) [Compound 232] | 5 (Level 5: the growth inhibition rate is greater than 85%) | 5 (Level 5: the growth inhibition rate is greater than 85%) | 5 (Level 5: the growth inhibition rate is greater than 85%) | 5 (Level 5: the growth inhibition rate is greater than 85%) | 5 (Level 5: the growth inhibition rate is greater than 85%)
C/C=C/c1ccc(CSC(=O)C(C)Oc2nc(F)c(Cl)c(N)c2Cl)cc1 (stereo not shown) [Compound 73] | 5 (Level 5: the growth inhibition rate is greater than 85%) | 5 (Level 5: the growth inhibition rate is greater than 85%) | 5 (Level 5: the growth inhibition rate is greater than 85%) | 5 (Level 5: the growth inhibition rate is greater than 85%) | 5 (Level 5: the growth inhibition rate is greater than 85%)
COc1ccc2ccc(COC(=O)C(C)Oc3nc(F)c(Cl)c(N)c3Cl)cc2c1 (stereo not shown) [Compound 183] | 5 (Level 5: the growth inhibition rate is greater than 85%) | 5 (Level 5: the growth inhibition rate is greater than 85%) | 5 (Level 5: the growth inhibition rate is greater than 85%) | 5 (Level 5: the growth inhibition rate is greater than 85%) | 5 (Level 5: the growth inhibition rate is greater than 85%)
COCOc1cccc(C)c1COC(=O)C(C)Oc1nc(F)c(Cl)c(N)c1Cl (racemic) [Compound 110] | 5 (Level 5: the growth inhibition rate is greater than 85%) | 5 (Level 5: the growth inhibition rate is greater than 85%) | 5 (Level 5: the growth inhibition rate is greater than 85%) | 5 (Level 5: the growth inhibition rate is greater than 85%) | 5 (Level 5: the growth inhibition rate is greater than 85%)
CC(Oc1nc(F)c(Cl)c(N)c1Cl)C(=O)SCc1ccccc1N=[N+]=[N-] (stereo not shown) [Compound 94] | 5 (Level 5: the growth inhibition rate is greater than 85%) | 5 (Level 5: the growth inhibition rate is greater than 85%) | 5 (Level 5: the growth inhibition rate is greater than 85%) | 5 (Level 5: the growth inhibition rate is greater than 85%) | 5 (Level 5: the growth inhibition rate is greater than 85%)
CC(Oc1nc(F)c(Cl)c(NC(=O)c2ccccc2)c1Cl)C(=O)OCc1ccccc1 (stereo not shown) [Compound 194] | 5 (Level 5: the growth inhibition rate is greater than 85%) | 5 (Level 5: the growth inhibition rate is greater than 85%) | 5 (Level 5: the growth inhibition rate is greater than 85%) | 5 (Level 5: the growth inhibition rate is greater than 85%) | 5 (Level 5: the growth inhibition rate is greater than 85%)
CC(Oc1nc(F)c(Cl)c(N)c1Cl)C(=O)SCc1csnn1 (stereo not shown) [Compound 168] | 5 (Level 5: the growth inhibition rate is greater than 85%) | 5 (Level 5: the growth inhibition rate is greater than 85%) | 5 (Level 5: the growth inhibition rate is greater than 85%) | 5 (Level 5: the growth inhibition rate is greater than 85%) | 5 (Level 5: the growth inhibition rate is greater than 85%)
CC(Oc1nc(F)c(Cl)c(N)c1Cl)C(=O)OCc1ccc(Cl)cc1 (stereo not shown) [Compound 204] | 5 (Level 5: the growth inhibition rate is greater than 85%) | 5 (Level 5: the growth inhibition rate is greater than 85%) | 5 (Level 5: the growth inhibition rate is greater than 85%) | 5 (Level 5: the growth inhibition rate is greater than 85%) | 5 (Level 5: the growth inhibition rate is greater than 85%)
CC(Oc1nc(F)c(C(F)(F)F)c(N)c1Cl)C(=O)OCc1ccccc1 (stereo not shown) [Compound 15] | 5 (Level 5: the growth inhibition rate is greater than 85%) | 5 (Level 5: the growth inhibition rate is greater than 85%) | 5 (Level 5: the growth inhibition rate is greater than 85%) | 5 (Level 5: the growth inhibition rate is greater than 85%) | 5 (Level 5: the growth inhibition rate is greater than 85%)
CC(Oc1nc(Cl)c(Cl)c(N)c1Cl)C(=O)SCc1ccccc1 (stereo not shown) [Compound 24] | 5 (Level 5: the growth inhibition rate is greater than 85%) | 5 (Level 5: the growth inhibition rate is greater than 85%) | 5 (Level 5: the growth inhibition rate is greater than 85%) | 5 (Level 5: the growth inhibition rate is greater than 85%) | 5 (Level 5: the growth inhibition rate is greater than 85%)
CC(Oc1nc(F)c(Cl)c(N)c1Cl)C(=O)SCc1ccco1 (stereo not shown) [Compound 139] | 5 (Level 5: the growth inhibition rate is greater than 85%) | 5 (Level 5: the growth inhibition rate is greater than 85%) | 5 (Level 5: the growth inhibition rate is greater than 85%) | 5 (Level 5: the growth inhibition rate is greater than 85%) | 5 (Level 5: the growth inhibition rate is greater than 85%)
CC(Oc1nc(F)c(Cl)c(N)c1Cl)C(=O)OCc1cn(C)cn1 (stereo not shown) [Compound 129] | 5 (Level 5: the growth inhibition rate is greater than 85%) | 5 (Level 5: the growth inhibition rate is greater than 85%) | 5 (Level 5: the growth inhibition rate is greater than 85%) | 5 (Level 5: the growth inhibition rate is greater than 85%) | 5 (Level 5: the growth inhibition rate is greater than 85%)
CNc1c(Cl)c(F)nc(OC(C)C(=O)OCc2ccccc2)c1Cl (stereo not shown) [Compound 190] | 5 (Level 5: the growth inhibition rate is greater than 85%) | 5 (Level 5: the growth inhibition rate is greater than 85%) | 5 (Level 5: the growth inhibition rate is greater than 85%) | 5 (Level 5: the growth inhibition rate is greater than 85%) | 5 (Level 5: the growth inhibition rate is greater than 85%)
CCCc1c(F)nc(OC(C)C(=O)SCc2ccccc2)c(C2CC2)c1N (stereo not shown) [Compound 14] | 5 (Level 5: the growth inhibition rate is greater than 85%) | 5 (Level 5: the growth inhibition rate is greater than 85%) | 5 (Level 5: the growth inhibition rate is greater than 85%) | 5 (Level 5: the growth inhibition rate is greater than 85%) | 5 (Level 5: the growth inhibition rate is greater than 85%)
CC(Oc1nc(F)c(Cl)c(N)c1Cl)C(=O)SCCc1cnno1 (stereo not shown) [Compound 152] | 5 (Level 5: the growth inhibition rate is greater than 85%) | 5 (Level 5: the growth inhibition rate is greater than 85%) | 5 (Level 5: the growth inhibition rate is greater than 85%) | 5 (Level 5: the growth inhibition rate is greater than 85%) | 5 (Level 5: the growth inhibition rate is greater than 85%)
CC(Oc1nc(F)c(Cl)c(N)c1Cl)C(=O)SCc1nc2ccccc2[nH]1 (stereo not shown) [Compound 170] | 5 (Level 5: the growth inhibition rate is greater than 85%) | 5 (Level 5: the growth inhibition rate is greater than 85%) | 5 (Level 5: the growth inhibition rate is greater than 85%) | 5 (Level 5: the growth inhibition rate is greater than 85%) | 5 (Level 5: the growth inhibition rate is greater than 85%)
CC(Oc1nc(F)c(Cl)c(N)c1Cl)C(=O)OCc1cccnn1 (stereo not shown) [Compound 122] | 5 (Level 5: the growth inhibition rate is greater than 85%) | 5 (Level 5: the growth inhibition rate is greater than 85%) | 5 (Level 5: the growth inhibition rate is greater than 85%) | 5 (Level 5: the growth inhibition rate is greater than 85%) | 5 (Level 5: the growth inhibition rate is greater than 85%)
